Laboratory results as given in US20060104978A1, “Methods and compositions for PDGF-C activation and inhibition” (LUDWIG INSTITUTE FOR CANCER RESEARCH, priority 2003, published 2006).

Legend:
[1] = test system: wild-type and tPA-deficient fibroblasts; assay: BrdU incorporation in primary fibroblasts; format: cell-based, mouse; settings: 50 ng/ml, 24 hours BrdU labeling
Description: Cell nuclei were visualized with 4′,6-diamidine-2′-phenylindole dihydrochloride (DAPI), and BrdU-labeled cells were determined by immunofluorescence using antibodies to BrdU (FIG. 7B).
To monitor cell growth, both the cell proliferation reagent WST-1 (Roche) and BrdU (Sigma) were used. A total of 0.4×10^4 (WST-1) or 1×10^4 (BrdU) wild-type and tPA-deficient fibroblasts were seeded in triplicate-hexaplicate, and after attachment they were serum-starved overnight. Serum-starved cells were counted (WST-1 seeding control) and alternatively incubated for 24 hours in serum-free medium supplemented with 1 mg/ml BSA, and 50 μM BrdU in the BrdU experiment, in the absence or presence of 50 ng/ml activated PDGF-CC or tPA protein (#116, American Diagnostica Inc.). Upon counting, WST-1 reagent was added and measured according to the manufacturer's protocol using an ELISA reader. In the BrdU experiment, the cells were fixed in 4% paraformaldehyde in PBS for 30 min at room temperature and the DNA was denatured in 2M HCl for 20 min at room temperature and then blocked in 0.5% BSA, 0.5% Tween, and 10% goat serum in PBS. […] Quantification of the BrdU-positive cells was performed by counting all cells along the vertical and horizontal diameters of all wells.

latent PDGF-CC = latent PDGF-CC (Homo sapiens, UniProt Q9NRA1); assay: In vitro cleavage of recombinant latent PDGF-CC with purified tPA; format: biochemical; design: His6-tagged recombinant full-length PDGF-CC; made in house; host or cells: Sf9 insect cells, baculovirus; settings: 0.2-20 μg/ml tPA, 4 hours at 37° C., CNBr activated fibrinogen
Excerpt: (§1) A cotransfection assay was established to identify serine proteases able to cleave and activate latent PDGF-CC. Expression plasmids encoding the relevant enzymes and full-length PDGF-C were cotransfected into COS-1 cells, and aliquots of the conditioned media from the transfectants were subjected to SDS-PAGE and immunoblotting using antibodies to the growth factor domain of PDGF-C. […] As a specificity control, the ability of tPA and NT to use full-length PDGF-DD as the substrate in the cotransfection assay was analysed. […] One difference in the latter results, as compared with the results from the cotransfection assay, was that purified tPA generated a second intermediate species of 32 kDa using latent PDGF-CC as the substrate. It is possible that this intermediate is the result of digestion by plasmin contamination in the tPA preparation, since the size of the fragment is similar to that of plasmincleaved PDGF-CC previously reported (Li et al, 2000).
Recombinant latent PDGF-CC and PDGF-DD were digested with human tPA in 100 mM Tris-HCl pH 7.5, 0.1% Tween 20, and 0.1 mg/ml CNBr activated fibrinogen (Sigma) for 4 hours at 37° C. using 0.2-20 μg/ml tPA purified from human melanoma cells (T7776, Sigma). The digestions were analyzed by SDS-PAGE under reducing conditions and immunoblotted using affinity-purified antibodies against PDGF-C and PDGF-D, respectively (see above).

latent PDGF-DD = latent PDGF-DD (Homo sapiens, UniProt Q9GZP0); assay: Cotransfection assay in COS-1 cells: protease plus full-length PDGF-D; format: cell-based; design: cotransfected with full-length PDGF-C (Li et al, 2000), full-length PDGF-D (Bergsten et al, 2001); expressed in transfected cells; host or cells: COS-1 cells; settings: COS-1 conditioned medium, immunoblot
Excerpt: as §1, with “It is possible that this intermediate is the result of digestion by plasmin contamination in the tPA preparation, since the size of the fragment is similar to that of plasmincleaved PDGF-CC previously reported (Li et al, 2000).” left out
To test the endogenous expression of PDGF-CC, subconfluent AG1523 cells and primary fibroblast cultures were cultured in serum-free DMEM overnight. […] In the case of the primary cultures, total protein concentration was measured and normalized (Bradford, 1976). […] PDGF-C and PDGF-D were detected by immunoblotting using affinity-purified polyclonal rabbit antibodies against PDGF-C (Li et al, 2000) and PDGF-D (Bergsten et al, 2001), respectively. The His6-tagged proteins were detected using an anti-His monoclonal antibody (C-terminal, Invitrogen). tPA was detected using sheep polyclonal antibodies against human tPA (ab9030, Abcam).

latent PDGF-CC, sequence (Q9NRA1 23-345): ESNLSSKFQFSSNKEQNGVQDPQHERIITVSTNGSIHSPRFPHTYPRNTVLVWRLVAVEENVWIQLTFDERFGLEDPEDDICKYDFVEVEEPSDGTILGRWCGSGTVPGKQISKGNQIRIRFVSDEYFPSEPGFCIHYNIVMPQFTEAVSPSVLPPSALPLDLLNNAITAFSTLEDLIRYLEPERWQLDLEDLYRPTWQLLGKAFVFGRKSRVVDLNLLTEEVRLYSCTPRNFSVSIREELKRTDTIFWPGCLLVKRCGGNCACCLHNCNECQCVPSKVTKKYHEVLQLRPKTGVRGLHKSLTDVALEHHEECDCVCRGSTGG

Substance: tPA: tissue plasminogen activator, secreted serine protease; expressed, purified from human melanoma cells or recombinant
- BrdU incorporation in tPA-deficient cells ([1]; serum-starved tPA-deficient fibroblasts): strongly stimulated BrdU incorporation in the tPA-deficient cells
- BrdU incorporation in wild-type cells ([1]; serum-starved wild-type fibroblasts): had less effect on wild-type cells
- cleavage of recombinant latent PDGF-CC by purified tPA (latent PDGF-CC): PDGF-CC, but not PDGF-DD, is a substrate for tPA
- cleavage and activation of latent PDGF-DD by the coexpressed protease (latent PDGF-DD): neither of the two enzymes was able to cleave and activate latent PDGF-DD
